# Data as given in article PMC9817970 (Cancers, 2022).
# Tests used:
# Experiment in all cases: Kinase panel profiling
# Type in all cases: biochemical
# Conditions in all cases: 10 μM ATP
# p70S6K/RPS6KB1 = target: T1, p70S6K/RPS6KB1 (Homo sapiens, UniProt P23443)
# T1 construct: purchased Reaction Biology Corp
# Method: (§1) Kinase panel profiling was conducted by Reaction Biology Corp. (San Diego, CA, USA). A single dose (1.0 μM) of 6r was tested against 371 recombinant human kinases in the presence of 10 μM ATP.
# TAK1 = target: T2, TAK1 (Homo sapiens, UniProt O43318)
# T2 construct: purchased Reaction Biology Corp
# Method: as §1
# BRK = target: T3, BRK (Homo sapiens, UniProt Q13882)
# T3 construct: purchased Reaction Biology Corp
# Method: as §1
# PKCnu/PRKD3 = target: T4, PKCnu/PRKD3 (Homo sapiens, UniProt O94806)
# T4 construct: purchased Reaction Biology Corp
# Method: as §1
# TBK1 = target: T5, TBK1 (Homo sapiens, UniProt Q9UHD2)
# T5 construct: purchased Reaction Biology Corp
# Method: as §1
# CDK3/cyclin E = target: T6, CDK3/cyclin E (Homo sapiens, UniProt Q00526)
# T6 construct: purchased Reaction Biology Corp
# Method: as §1
# CK2a2 = target: T7, CK2a2 (Homo sapiens, UniProt P19784)
# T7 construct: purchased Reaction Biology Corp
# Method: as §1
# DRAK1/STK17A = target: T8, DRAK1/STK17A (Homo sapiens, UniProt Q9UEE5)
# T8 construct: purchased Reaction Biology Corp
# Method: as §1
# FMS = target: T9, FMS (Homo sapiens, UniProt P07333)
# T9 construct: purchased Reaction Biology Corp
# Method: as §1
# PLK3 = target: T10, PLK3 (Homo sapiens, UniProt Q9H4B4)
# T10 construct: purchased Reaction Biology Corp
# Method: as §1
# c-MET = target: T11, c-MET (Homo sapiens, UniProt P08581)
# T11 construct: purchased Reaction Biology Corp
# Method: as §1
# MST4 = target: T12, MST4 (Homo sapiens, UniProt Q9P289)
# T12 construct: purchased Reaction Biology Corp
# Method: as §1
# NEK9 = target: T13, NEK9 (Homo sapiens, UniProt Q8TD19)
# T13 construct: purchased Reaction Biology Corp
# Method: as §1
# ALK6/BMPR1B = target: T14, ALK6/BMPR1B (Homo sapiens, UniProt O00238)
# T14 construct: purchased Reaction Biology Corp
# Method: as §1
# MAK = target: T15, MAK (Homo sapiens, UniProt P20794)
# T15 construct: purchased Reaction Biology Corp
# Method: as §1
# STK32B/YANK2 = target: T16, STK32B/YANK2 (Homo sapiens, UniProt Q9NY57)
# T16 construct: purchased Reaction Biology Corp
# Method: as §1
# WEE1 = target: T17, WEE1 (Homo sapiens, UniProt P30291)
# T17 construct: purchased Reaction Biology Corp
# Method: as §1
# IKKe/IKBKE = target: T18, IKKe/IKBKE (Homo sapiens, UniProt Q14164)
# T18 construct: purchased Reaction Biology Corp
# Method: as §1
# LOK/STK10 = target: T19, LOK/STK10 (Homo sapiens, UniProt O94804)
# T19 construct: purchased Reaction Biology Corp
# Method: as §1
# TAOK2/TAO1 = target: T20, TAOK2/TAO1 (Homo sapiens, UniProt Q9UL54)
# T20 construct: purchased Reaction Biology Corp
# Method: as §1
# CHK1 = target: T21, CHK1 (Homo sapiens, UniProt O14757)
# T21 construct: purchased Reaction Biology Corp
# Method: as §1
# MLK1/MAP3K9 = target: T22, MLK1/MAP3K9 (Homo sapiens, UniProt P80192)
# T22 construct: purchased Reaction Biology Corp
# Method: as §1
# OSR1/OXSR1 = target: T23, OSR1/OXSR1 (Homo sapiens, UniProt O95747)
# T23 construct: purchased Reaction Biology Corp
# Method: as §1
# PAK5 = target: T24, PAK5 (Homo sapiens, UniProt Q9P286)
# T24 construct: purchased Reaction Biology Corp
# Method: as §1
# MASTL = target: T25, MASTL (Homo sapiens, UniProt Q96GX5)
# T25 construct: purchased Reaction Biology Corp
# Method: as §1
# CDK3/cyclin E2 = target: T26, CDK3/cyclin E2 (Homo sapiens, UniProt Q00526)
# T26 construct: purchased Reaction Biology Corp
# Method: as §1
# RIPK4 = target: T27, RIPK4 (Homo sapiens, UniProt P57078)
# T27 construct: purchased Reaction Biology Corp
# Method: as §1
# SSTK/TSSK6 = target: T28, SSTK/TSSK6 (Homo sapiens, UniProt Q9BXA6)
# T28 construct: purchased Reaction Biology Corp
# Method: as §1
# MRCKb/CDC42BPB = target: T29, MRCKb/CDC42BPB (Homo sapiens, UniProt Q9Y5S2)
# T29 construct: purchased Reaction Biology Corp
# Method: as §1
# ERK2/MAPK1 = target: T30, ERK2/MAPK1 (Homo sapiens, UniProt P28482)
# T30 construct: purchased Reaction Biology Corp
# Method: as §1
# PKCepsilon = target: T31, PKCepsilon (Homo sapiens, UniProt Q02156)
# T31 construct: purchased Reaction Biology Corp
# Method: as §1
# JAK3 = target: T32, JAK3 (Homo sapiens, UniProt P52333)
# T32 construct: purchased Reaction Biology Corp
# Method: as §1
# SNRK = target: T33, SNRK (Homo sapiens, UniProt Q9NRH2)
# T33 construct: purchased Reaction Biology Corp
# Method: as §1
# GRK6 = target: T34, GRK6 (Homo sapiens, UniProt P43250)
# T34 construct: purchased Reaction Biology Corp
# Method: as §1
# CAMK2d = target: T35, CAMK2d (Homo sapiens, UniProt Q13557)
# T35 construct: purchased Reaction Biology Corp
# Method: as §1
# GRK5 = target: T36, GRK5 (Homo sapiens, UniProt P34947)
# T36 construct: purchased Reaction Biology Corp
# Method: as §1
# SIK1 = target: T37, SIK1 (Homo sapiens, UniProt P57059)
# T37 construct: purchased Reaction Biology Corp
# Method: as §1
# SBK1 = target: T38, SBK1 (Homo sapiens, UniProt Q52WX2)
# T38 construct: purchased Reaction Biology Corp
# Method: as §1
# CTK/MATK = target: T39, CTK/MATK (Homo sapiens, UniProt P42679)
# T39 construct: purchased Reaction Biology Corp
# Method: as §1
# MST2/STK3 = target: T40, MST2/STK3 (Homo sapiens, UniProt Q13188)
# T40 construct: purchased Reaction Biology Corp
# Method: as §1
# HIPK1 = target: T41, HIPK1 (Homo sapiens, UniProt Q86Z02)
# T41 construct: purchased Reaction Biology Corp
# Method: as §1
# SGK1 = target: T42, SGK1 (Homo sapiens, UniProt O00141)
# T42 construct: purchased Reaction Biology Corp
# Method: as §1
# T27 sequence (P57078 whole entry): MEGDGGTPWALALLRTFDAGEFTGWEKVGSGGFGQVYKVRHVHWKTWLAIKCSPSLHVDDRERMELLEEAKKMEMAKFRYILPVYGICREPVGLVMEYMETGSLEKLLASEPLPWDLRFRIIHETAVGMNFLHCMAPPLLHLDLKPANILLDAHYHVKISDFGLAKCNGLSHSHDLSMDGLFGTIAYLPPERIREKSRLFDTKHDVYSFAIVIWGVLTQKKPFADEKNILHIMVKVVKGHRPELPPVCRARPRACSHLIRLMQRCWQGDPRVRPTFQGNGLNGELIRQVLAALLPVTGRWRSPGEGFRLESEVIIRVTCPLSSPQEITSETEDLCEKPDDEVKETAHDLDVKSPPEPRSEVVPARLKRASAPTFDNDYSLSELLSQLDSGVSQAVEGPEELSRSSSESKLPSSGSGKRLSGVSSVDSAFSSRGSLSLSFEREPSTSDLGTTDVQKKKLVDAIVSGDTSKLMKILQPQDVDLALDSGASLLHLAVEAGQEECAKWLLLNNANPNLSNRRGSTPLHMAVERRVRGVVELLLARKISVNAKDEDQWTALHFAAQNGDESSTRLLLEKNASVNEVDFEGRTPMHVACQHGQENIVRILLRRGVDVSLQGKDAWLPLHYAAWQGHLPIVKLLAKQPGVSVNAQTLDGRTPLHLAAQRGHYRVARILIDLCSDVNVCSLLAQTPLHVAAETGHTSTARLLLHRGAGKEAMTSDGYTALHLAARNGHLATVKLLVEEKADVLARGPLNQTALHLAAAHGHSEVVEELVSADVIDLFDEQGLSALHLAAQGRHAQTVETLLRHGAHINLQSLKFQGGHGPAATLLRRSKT
# T26 sequence (Q00526 whole entry): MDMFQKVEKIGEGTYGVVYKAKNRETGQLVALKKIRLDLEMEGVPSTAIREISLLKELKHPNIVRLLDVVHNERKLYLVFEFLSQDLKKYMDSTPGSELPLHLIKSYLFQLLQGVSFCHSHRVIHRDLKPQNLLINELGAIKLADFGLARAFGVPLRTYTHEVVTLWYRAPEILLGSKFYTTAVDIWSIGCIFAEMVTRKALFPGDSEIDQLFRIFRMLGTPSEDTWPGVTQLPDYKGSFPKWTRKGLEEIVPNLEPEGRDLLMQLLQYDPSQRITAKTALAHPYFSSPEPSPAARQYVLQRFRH
# T26 sequence (O96020 whole entry partner): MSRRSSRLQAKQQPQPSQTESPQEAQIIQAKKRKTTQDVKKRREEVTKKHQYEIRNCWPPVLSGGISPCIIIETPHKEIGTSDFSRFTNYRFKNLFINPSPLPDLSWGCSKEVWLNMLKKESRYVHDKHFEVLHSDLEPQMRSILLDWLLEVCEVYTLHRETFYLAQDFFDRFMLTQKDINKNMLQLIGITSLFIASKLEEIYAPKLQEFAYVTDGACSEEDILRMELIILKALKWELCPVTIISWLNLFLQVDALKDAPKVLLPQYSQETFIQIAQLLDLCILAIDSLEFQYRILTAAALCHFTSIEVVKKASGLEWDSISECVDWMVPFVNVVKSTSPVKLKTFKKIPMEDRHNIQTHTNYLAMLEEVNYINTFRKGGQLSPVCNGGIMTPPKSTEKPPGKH
# T6 sequence (Q00526 whole entry): as the sequence (Q00526 whole entry) above
# T6 sequence (P24864 whole entry partner): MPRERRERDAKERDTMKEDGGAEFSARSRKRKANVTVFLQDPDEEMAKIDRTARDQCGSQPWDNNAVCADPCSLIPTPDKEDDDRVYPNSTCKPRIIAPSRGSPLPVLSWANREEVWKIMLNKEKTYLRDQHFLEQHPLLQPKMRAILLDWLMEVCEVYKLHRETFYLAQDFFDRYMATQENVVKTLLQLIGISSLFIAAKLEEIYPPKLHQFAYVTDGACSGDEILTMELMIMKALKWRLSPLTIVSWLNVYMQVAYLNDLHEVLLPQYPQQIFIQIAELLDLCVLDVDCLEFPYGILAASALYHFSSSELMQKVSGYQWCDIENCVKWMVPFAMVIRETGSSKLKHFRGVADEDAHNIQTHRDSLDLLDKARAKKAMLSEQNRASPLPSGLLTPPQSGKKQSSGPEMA
# T17 sequence (P30291 whole entry): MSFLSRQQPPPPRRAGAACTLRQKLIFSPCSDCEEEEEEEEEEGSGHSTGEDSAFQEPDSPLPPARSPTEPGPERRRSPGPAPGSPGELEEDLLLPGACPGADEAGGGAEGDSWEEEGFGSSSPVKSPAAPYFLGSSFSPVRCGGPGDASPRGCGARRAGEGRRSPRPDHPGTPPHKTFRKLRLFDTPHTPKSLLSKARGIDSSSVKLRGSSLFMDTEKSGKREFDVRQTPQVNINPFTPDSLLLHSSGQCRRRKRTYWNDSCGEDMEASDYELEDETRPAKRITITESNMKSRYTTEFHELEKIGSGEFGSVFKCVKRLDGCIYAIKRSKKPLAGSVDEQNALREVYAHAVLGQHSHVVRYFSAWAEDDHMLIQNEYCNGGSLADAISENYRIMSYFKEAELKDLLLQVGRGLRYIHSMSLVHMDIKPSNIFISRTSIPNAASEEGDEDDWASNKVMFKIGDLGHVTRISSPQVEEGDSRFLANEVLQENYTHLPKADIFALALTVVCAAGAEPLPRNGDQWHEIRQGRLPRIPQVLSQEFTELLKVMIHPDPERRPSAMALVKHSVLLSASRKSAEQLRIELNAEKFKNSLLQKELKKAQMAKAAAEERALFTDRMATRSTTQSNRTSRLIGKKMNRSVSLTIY
# T37 sequence (P57059 whole entry): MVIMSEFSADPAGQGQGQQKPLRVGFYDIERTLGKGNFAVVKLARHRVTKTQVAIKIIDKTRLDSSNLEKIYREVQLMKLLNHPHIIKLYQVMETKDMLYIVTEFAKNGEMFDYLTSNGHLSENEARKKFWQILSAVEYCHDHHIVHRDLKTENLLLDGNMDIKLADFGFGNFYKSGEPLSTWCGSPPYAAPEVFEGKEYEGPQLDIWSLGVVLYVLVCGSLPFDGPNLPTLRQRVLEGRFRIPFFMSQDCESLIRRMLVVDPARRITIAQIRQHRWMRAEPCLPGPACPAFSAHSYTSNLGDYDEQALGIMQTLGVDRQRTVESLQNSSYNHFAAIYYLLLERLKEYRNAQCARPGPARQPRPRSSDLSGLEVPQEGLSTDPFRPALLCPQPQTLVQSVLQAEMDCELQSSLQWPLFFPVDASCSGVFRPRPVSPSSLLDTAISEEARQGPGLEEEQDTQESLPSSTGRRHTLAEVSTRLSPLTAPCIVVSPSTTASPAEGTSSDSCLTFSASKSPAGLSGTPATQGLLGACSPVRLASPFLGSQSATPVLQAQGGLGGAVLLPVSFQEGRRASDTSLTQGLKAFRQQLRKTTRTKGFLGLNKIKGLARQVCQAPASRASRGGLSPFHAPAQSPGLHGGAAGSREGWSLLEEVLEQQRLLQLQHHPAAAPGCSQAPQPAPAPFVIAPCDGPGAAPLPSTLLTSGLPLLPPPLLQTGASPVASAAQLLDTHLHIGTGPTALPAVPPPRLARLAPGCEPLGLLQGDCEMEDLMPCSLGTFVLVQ
# T11 sequence (P08581 25-1390): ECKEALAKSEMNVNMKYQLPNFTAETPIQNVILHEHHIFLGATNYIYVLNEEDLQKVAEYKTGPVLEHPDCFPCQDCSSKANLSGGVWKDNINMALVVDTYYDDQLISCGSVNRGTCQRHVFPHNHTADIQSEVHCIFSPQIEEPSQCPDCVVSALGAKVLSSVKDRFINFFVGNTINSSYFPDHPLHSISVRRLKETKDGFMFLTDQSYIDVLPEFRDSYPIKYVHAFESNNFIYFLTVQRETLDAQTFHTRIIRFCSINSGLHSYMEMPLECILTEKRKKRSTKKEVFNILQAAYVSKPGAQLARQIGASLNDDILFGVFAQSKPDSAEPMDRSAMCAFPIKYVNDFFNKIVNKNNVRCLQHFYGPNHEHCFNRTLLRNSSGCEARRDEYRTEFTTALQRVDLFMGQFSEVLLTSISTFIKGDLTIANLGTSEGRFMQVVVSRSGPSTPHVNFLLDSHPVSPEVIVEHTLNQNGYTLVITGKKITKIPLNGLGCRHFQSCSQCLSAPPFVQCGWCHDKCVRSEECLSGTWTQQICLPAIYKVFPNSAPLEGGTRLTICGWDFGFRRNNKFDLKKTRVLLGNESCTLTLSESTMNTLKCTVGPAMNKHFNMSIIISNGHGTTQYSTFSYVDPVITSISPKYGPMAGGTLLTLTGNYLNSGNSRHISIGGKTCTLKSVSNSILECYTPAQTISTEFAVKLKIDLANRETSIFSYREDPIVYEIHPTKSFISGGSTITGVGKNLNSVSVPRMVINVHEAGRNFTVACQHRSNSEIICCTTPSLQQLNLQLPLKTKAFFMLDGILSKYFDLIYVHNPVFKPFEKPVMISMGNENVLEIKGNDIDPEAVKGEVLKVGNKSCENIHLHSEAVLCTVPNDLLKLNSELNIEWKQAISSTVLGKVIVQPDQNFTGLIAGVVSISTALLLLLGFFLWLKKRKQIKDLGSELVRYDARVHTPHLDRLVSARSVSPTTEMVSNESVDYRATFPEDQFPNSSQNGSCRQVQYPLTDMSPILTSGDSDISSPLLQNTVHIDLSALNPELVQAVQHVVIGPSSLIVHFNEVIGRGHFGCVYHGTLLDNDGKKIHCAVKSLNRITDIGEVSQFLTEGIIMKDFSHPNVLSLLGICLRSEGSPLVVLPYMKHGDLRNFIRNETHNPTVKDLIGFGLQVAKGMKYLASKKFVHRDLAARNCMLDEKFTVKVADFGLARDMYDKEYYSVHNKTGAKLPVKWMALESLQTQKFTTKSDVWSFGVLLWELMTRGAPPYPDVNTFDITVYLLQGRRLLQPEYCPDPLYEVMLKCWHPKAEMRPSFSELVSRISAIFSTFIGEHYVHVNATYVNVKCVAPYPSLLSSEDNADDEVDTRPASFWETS
compound,measurement,setting,value
Cc1ccc(NC(=O)c2ccc(CN3CCN(C)CC3)c(C(F)(F)F)c2)cc1-c1cnc2sc(N)nc2c1 [6r],inhibition at 1 µM,p70S6K/RPS6KB1,8.4%
same,inhibition at 1 µM,TAK1,12.8%
same,inhibition at 1 µM,BRK,37.5%
same,inhibition at 1 µM,PKCnu/PRKD3,23.8%
same,inhibition at 1 µM,TBK1,5%
same,inhibition at 1 µM,CDK3/cyclin E,14.3%
same,inhibition at 1 µM,CK2a2,1%
same,inhibition at 1 µM,DRAK1/STK17A,0%
same,inhibition at 1 µM,FMS,99%
same,inhibition at 1 µM,PLK3,4.8%
same,inhibition at 1 µM,c-MET,2.7%
same,inhibition at 1 µM,MST4,15.7%
same,inhibition at 1 µM,NEK9,0%
same,inhibition at 1 µM,ALK6/BMPR1B,15%
same,inhibition at 1 µM,MAK,15%
same,inhibition at 1 µM,STK32B/YANK2,0%
same,inhibition at 1 µM,WEE1,0%
same,inhibition at 1 µM,IKKe/IKBKE,2%
same,inhibition at 1 µM,LOK/STK10,14%
same,inhibition at 1 µM,TAOK2/TAO1,61.9%
same,inhibition at 1 µM,CHK1,9.3%
same,inhibition at 1 µM,MLK1/MAP3K9,0%
same,inhibition at 1 µM,OSR1/OXSR1,5.5%
same,inhibition at 1 µM,PAK5,5%
same,inhibition at 1 µM,MASTL,1.3%
same,inhibition at 1 µM,CDK3/cyclin E2,12.4%
same,inhibition at 1 µM,RIPK4,4.8%
same,inhibition at 1 µM,SSTK/TSSK6,0%
same,inhibition at 1 µM,MRCKb/CDC42BPB,2.4%
same,inhibition at 1 µM,ERK2/MAPK1,13.5%
same,inhibition at 1 µM,PKCepsilon,0%
same,inhibition at 1 µM,JAK3,7.8%
same,inhibition at 1 µM,SNRK,0%
same,inhibition at 1 µM,GRK6,0%
same,inhibition at 1 µM,CAMK2d,0%
same,inhibition at 1 µM,GRK5,5.8%
same,inhibition at 1 µM,SIK1,1.1%
same,inhibition at 1 µM,SBK1,6.7%
same,inhibition at 1 µM,CTK/MATK,8.1%
same,inhibition at 1 µM,MST2/STK3,0%
same,inhibition at 1 µM,HIPK1,5.2%
same,inhibition at 1 µM,SGK1,11.6%
